“Also recorded” adds a separate entry of the source.
Legend:
DC-SIGN CRD = biological target: T1, DC-SIGN CRD (Homo sapiens, UniProt Q9NNX6); assay: Surface plasmon resonance (SPR) binding to immobilised DC-SIGN CRD; conditions: Kd=koff/kon
T1 construct: human DC-SIGN (Lys62-Ala404, from R§D Systems); purchased R&D Systems ('R§D Systems' [sic])
T1 sequence (Q9NNX6 62-404): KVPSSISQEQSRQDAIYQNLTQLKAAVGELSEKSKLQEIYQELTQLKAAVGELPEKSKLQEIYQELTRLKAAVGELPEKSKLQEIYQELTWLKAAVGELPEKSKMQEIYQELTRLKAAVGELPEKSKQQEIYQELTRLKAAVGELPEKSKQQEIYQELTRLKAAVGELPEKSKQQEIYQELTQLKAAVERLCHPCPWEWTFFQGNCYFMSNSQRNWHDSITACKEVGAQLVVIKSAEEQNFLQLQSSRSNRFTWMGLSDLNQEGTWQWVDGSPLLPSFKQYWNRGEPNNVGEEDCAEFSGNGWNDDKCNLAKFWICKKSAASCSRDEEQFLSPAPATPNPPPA
Protocol: SPR experiments were performed using a Biacore 3000. […] Biosensor assays were performed with HEPES-buffered saline (10 mM HEPES, 150 mM sodium chloride, pH 7.4) containing 0.005% surfactant P20 and 5 mM CaCl2 as a running buffer. All binding experiments were carried out at 25° C. with a constant flow rate of 20 μl/min. The different compounds dissolved in the running buffer (0.39 to 50 μM) were injected for 3 min, followed by a dissociation phase of 3 min. The sensor chip surface was regenerated after each experiment by injecting 10 μL of EDTA 0.5 M pH 8.0. A simple channel activated by EDC/NHS and deactivated with ethanolamine was used as control. The kinetic parameters were calculated using the BlAeval 4.1 software. Analysis was performed using the simple Langmuir binding model with separate ka/kd (kon/koff). The specific binding profiles were obtained after subtracting the response signal from the control channel and from blank-buffer injection. The fitting to each model was judged by the chi square value and randomness of residue distribution compared to the theoretical model (Langmuir binding 1:1).
The binding affinity of mannoside derivatives for the carbohydrate recognition domain (CRD) of DC-SIGN was assessed by surface plasmon resonance (SPR).
A CM5 sensor chip was functionalized with the DC-SIGN CRD, and increasing concentrations of the various compounds, mannan as a positive control and octaethyleneglycol (OEG) as a negative control, were injected over the chip surface. The association (kon) and dissociation (koff) rate constants and the resulting dissociation equilibrium constant (Kd=koff/kon) for each assessed compound were determined (see Table 1 hereunder).

DC-SIGN = biological target: T2, DC-SIGN (Homo sapiens, UniProt Q9NNX6); assay: DC-SIGN internalization in DCs (flow cytometry, confocal microscopy); assay type: cell-based; conditions: 100 μM
T2 construct: endogenous in cells; host or cells: human monocyte-derived dendritic cells (GM-CSF/IL-4 differentiated)
T2 sequence (Q9NNX6 1-404): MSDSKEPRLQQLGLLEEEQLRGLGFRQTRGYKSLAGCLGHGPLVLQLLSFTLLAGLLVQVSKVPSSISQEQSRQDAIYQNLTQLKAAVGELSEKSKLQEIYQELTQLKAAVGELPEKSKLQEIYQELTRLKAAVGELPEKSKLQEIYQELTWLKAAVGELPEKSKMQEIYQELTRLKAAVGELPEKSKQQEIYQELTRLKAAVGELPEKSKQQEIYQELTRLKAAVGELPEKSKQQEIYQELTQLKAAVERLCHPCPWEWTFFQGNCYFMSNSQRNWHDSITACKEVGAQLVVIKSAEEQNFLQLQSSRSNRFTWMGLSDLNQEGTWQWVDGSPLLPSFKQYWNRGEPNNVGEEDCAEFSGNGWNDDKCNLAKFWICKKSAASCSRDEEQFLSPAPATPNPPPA
Protocol: To visualize the effect on DC-SIGN, cells were either left untreated or exposed to TriMan (100 μM final) for 45 min at 37° C., fixed with 4% paraformaldehyde for 15 min at room temperature, washed, permeabilized with 0.1% Triton X-100 for 3 min at 20° C., washed and labeled with an anti-DC-SIGN primary monoclonal antibody clone 111H2 (Canard, et al., 2011), followed by a secondary FITC-labeled anti-mouse-IgG (Southern Biotech). Nuclei were labeled with DAPI. Slides were mounted and processed as above.
Moreover, expression of DC-SIGN was visualized with a fluorescently-labeled antibody by confocal fluorescence microscopy. In untreated cells, DC-SIGN was mostly located at the cell membrane, in agreement with previous reports (Engering, et al., 2002). Upon exposure to TriManC24, DC-SIGN was detected both at the cell membrane and within the cytoplasm. […] The effect of TriManC24 on DC-SIGN cellular localization was assessed by flow cytometry analyses of DCs, in the absence or presence of TriManC24.

CCCCCCCCCCCCCCCCCCCCCCCCC(=O)NC(COCCC(=O)NCCOCCOCCOCCOC1OC(CO)C(O)C(O)C1O)(COCCC(=O)NCCOCCOCCOCCOC1OC(CO)C(O)C(O)C1O)COCCC(=O)NCCOCCOCCOCCOC1OC(CO)C(O)C(O)C1O (stereo not drawn) [TriManC24]
KD (μM) (DC-SIGN CRD): low micromolar range; also recorded: Sub-micromolar
Kd (DC-SIGN CRD): 3.19 µM
DC-SIGN receptors internalized (DC-SIGN): about 20%
